Measured values from US11629141B2, “Proteasome inhibitors and uses thereof” (CORNELL UNIVERSITY, priority 2015, dated 2023).

Key:
[1] = biological target: T1, human immunoproteasome β5i (Homo sapiens, UniProt P28062); assay: IC50 against chymotryptic β5i activity of human immunoproteasome (96-well plate, Ac-ANW-AMC); assay type: biochemical; details: for IC50: β5i, substrate Ac-ANW-AMC, read-out: IC50 Hu i-20S (Ac-ANW-AMC)
T1 construct: purchased Boston Biochem Inc
Procedure: A 96-well-plate assays were used to determine the IC50s against the chymotryptic β5 activities of the proteasomes. Both human constitutive proteasome and immunoproteasome were purchased from Boston Biochem Inc. 1 μL of 100× compound in DMSO at designated concentrations were spotted at the bottom of the wells. DMSO was used as a control. […] The hydrolysis of the substrate over time in each well was monitored at excitation 360 nm, emission 460 nm for 90 minutes. IC50s were estimated by fitting the velocities of hydrolysis against compound concentrations using PRISM. […] SDS (0.02%) was used as activator, and 0.01% BSA was used in the reaction buffer.

[2] = biological target: T2, human constitutive proteasome β5c (Homo sapiens, UniProt P28074); assay: IC50 against chymotryptic β5c activity of human constitutive proteasome (96-well plate, Suc-LLVY-AMC); assay type: biochemical; details: for IC50: β5c, substrate Suc-LLVY-AMC, read-out: IC50 Hu c-20S (Suc-LLVY-AMC)
T2 construct: purchased Boston Biochem Inc
Procedure: A 96-well-plate assays were used to determine the IC50s against the chymotryptic β5 activities of the proteasomes. Both human constitutive proteasome and immunoproteasome were purchased from Boston Biochem Inc. 1 μL of 100× compound in DMSO at designated concentrations were spotted at the bottom of the wells. DMSO was used as a control. Final concentrations of the inhibitors were from 100 μM to 0.098 μM. The hydrolysis of the substrate over time in each well was monitored at excitation 360 nm, emission 460 nm for 90 minutes. IC50s were estimated by fitting the velocities of hydrolysis against compound concentrations using PRISM. […] Suc-LLVY-AMC was used for βc at final concentration of 25 μM, and Ac-ANW-AMC for b5i at final concentration of 15 μM. SDS (0.02%) was used as activator, and 0.01% BSA was used in the reaction buffer.
The foregoing features of these AsnEDA encouraged a further round of SAR studies (Table 5) based on varying the carboxylic acid at the ethylenediamine, the N-cap at the Asn, and the side chain of the Asn, based on PKS21004. All compounds listed in the Table 5 were synthesized as described in Examples 6-77. All final compounds were confirmed by NMR and HRMS. IC50s of all compounds against β5i and β5c (Table 5), β1i, β2i, β1c and β2c were determined following a reported method (Lin et al., “N,C-Capped Dipeptides With Selectivity for Mycobacterial Proteasome Over Human Proteasomes: Role of S3 and S1Binding Pockets,” J Am Chem Soc. 135:9968-9971 (2013), which is hereby incorporated by reference in its entirety). […] The [1,1′-biphenyl]-3-carboxamide of PKS21004 was then modified with the following substituents: 4′-fluoro (PKS21026), 4′-cyano (PKS21028), 4-fluoro (PKS21196), 4,3′-difluoro (PKS21195) and 4,2′-difluoro (PKS21187).

Plasmodium falciparum = assay: Growth of Plasmodium falciparum in red blood cells (SYBR Green, 72 hours); assay type: cell-based; details: Erythrocyte, P.f. 3D7, growth in red blood cells, read-out: EC50 (nM) (P.f.)
Procedure: Continuous in vitro cultures of Plasmodium falciparum: were maintained in human red blood cells (RBC) diluted to a hematocrit of 5% in RPMI 1640 medium with HEPES and Hypoxanthine and completed with 0.5% Albumax II (Invitrogen), 0.25% sodium bicarbonate, and 0.1 mg/ml gentamicin. Parasites were incubated at 37° C. in a gas mixture of 5% oxygen, 5% carbon dioxide, and 90% nitrogen.
Parasite sensitivity to novel compounds were determined using a SYBR Green (Invitrogen S1046) drug assay protocol. P. falciparum of various clinic stains were cultured with compounds at concentrations in a series of dilution in a clear, sterile 96-well plate for 72 hours. Subsequently, 150 μl of the cultures were transferred to a black 96-well plate and placed in the freezer for red blood cell lysis. The plates were thawed and suspended in a Sybr Green Lysis buffer. GraphPad Prism was used to analyze the raw data collected […]. Drug concentrations were converted to logarithms, normalized, and then curve fitted by non-linear regression to obtain EC50 values.
Plasmodium falciparum: parasites were cultured in human red cells. Drug assays were run in 96 well plates at a total volume of 200 μl. Assays were set up at a starting parasitemia (percent of infected red cells) of 0.5%. Test compounds were plated at concentrations of 2778 nM to 0.4 nM. The test plates were grown under standard low oxygen conditions at 37° C. for 72 hours. At that time the plates were prepared for growth determination, first the plates were frozen and thawed to lyse the red blood cells, 150 μl of the lysed thawed culture was transferred to a black 96 well plate, and mixed in a lysis buffer with SYBR green DNA dye. The fluorescence of each well was recorded in a plate reader with excitation wavelength 490 nm and emission wavelength 530 nm and normalized relative to DMSO control. The EC50s were determined using Prism software.

Row | Compound | inhibitory activity against β5i (in words) [1] | IC50 [1] | inhibitory activity against β5c (in words) [2] | IC50 [2] | EC50 (Plasmodium falciparum) | selectivity for β5i over β5c [1]
1 | Cc1ccc(S(=O)(=O)NCC(=O)NCCNC(=O)c2cc(-c3ccccc3F)ccc2F)cc1 [PKS21289] | eliminated inhibitory activity | 40300 nM | eliminated inhibitory activity | 60800 nM |  | 
2 | Cc1cc(C(=O)N[C@@H](CC(=O)NC(C)(C)C)C(=O)NCCNC(=O)c2ccccc2F)no1 [PKS21251] |  | 6340 nM |  | 39000 nM |  | 
3 | Cc1cc(C(=O)N[C@@H](CC(=O)NC(C)(C)C)C(=O)NCCNC(=O)c2ccccn2)no1 [PKS21250] |  | 65600 nM |  | > 100000 nM |  | 
4 | O=C(CCc1ccc(F)cc1)N[C@@H](CC(=O)NC1(C(F)(F)F)CC1)C(=O)NCCNC(=O)c1cc(-c2ccccc2F)ccc1F [PKS21279] |  | 37 nM |  | 114 nM |  | 
5 | Cc1cc(C(=O)N[C@@H](CC(=O)NC(C)(C)C)C(=O)NCCNC(=O)c2cc(-c3ccccc3F)ccc2F)no1 [PKS21208] |  | 27 nM |  | 1040 nM |  | 
6 | Cc1ccc(S(=O)(=O)N[C@@H](CC(N)=O)C(=O)NCCNC(=O)c2cc(-c3ccccc3F)ccc2F)cc1 [PKS21288] | eliminated inhibitory activity | 4140 nM | eliminated inhibitory activity | > 100000 nM |  | 
7 | Cc1cc(C(=O)N[C@@H](CC(=O)NC(C)(C)C)C(=O)NCCNC(=O)c2cccc(-n3cccn3)c2)no1 [TDI4258] |  |  |  |  | 29 nM | 
8 | Cc1ccc(S(=O)(=O)N[C@@H](CC(=O)NC(C)(C)C)C(=O)NCCNC(=O)c2ccccc2F)cc1 [PKS21291] |  | 55 nM |  | 520 nM | 11 nM | 
9 | Cc1ccc(S(=O)(=O)N[C@@H](CC(=O)NC(C)(C)C)C(=O)NCCNC(=O)c2cccc(N3CCNC3=O)c2)cc1 [PKS21295] |  | 129 nM |  | 2390 nM |  | 
10 | CC(C)(C)OC(=O)N[C@@H](CC(N)=O)C(=O)NCCNC(=O)c1cc(-c2ccccc2F)ccc1F [PKS21281] | abolished the inhibitory activities | > 100000 nM | abolished the inhibitory activities | > 100000 nM |  | 
11 | Cc1cc(C(=O)N[C@@H](CC(=O)NC(C)(C)C)C(=O)NCCNC(=O)c2cc(-c3cccc(F)c3)ccc2F)no1 [PKS21225] |  | 269 nM |  | 11800 nM |  | 
12 | C[C@H](NC(=O)OC(C)(C)C)C(=O)NCCNC(=O)c1cc(-c2ccccc2F)ccc1F [PKS21280] | abolished the inhibitory activities | 33200 nM | abolished the inhibitory activities | > 100000 nM |  | 
13 | CC(C)(C)NC(=O)C[C@H](NC(=O)OC(C)(C)C)C(=O)NCCNC(=O)c1cc(-c2ccccc2F)ccc1F [PKS21277] | modestly potent | 112 nM |  | 3650 nM |  | 36 fold
14 | CC(C)(C)NC(=O)C[C@H](NS(=O)(=O)C1CC1)C(=O)NCCNC(=O)c1cc(-c2ccccc2F)ccc1F [PKS21293] |  | 15 nM |  | 960 nM |  | 
15 | Cc1ccc(S(=O)(=O)N[C@@H](C)C(=O)NCCNC(=O)c2cc(-c3ccccc3F)ccc2F)cc1 [PKS21290] | eliminated inhibitory activity | > 100000 nM | eliminated inhibitory activity | > 100000 nM |  | 
16 | CC(C)(C)NC(=O)C[C@H](N)C(=O)NCCNC(=O)c1cc(-c2ccccc2F)ccc1F [PKS21284] |  | 626 nM |  | 3090 nM |  | 
17 | CC(C)(C)OC(=O)NCC(=O)NCCNC(=O)c1cc(-c2ccccc2F)ccc1F [PKS21276] | abolished the inhibitory activities | 24300 nM | abolished the inhibitory activities | > 100000 nM |  | 

The remaining lines, values ahead:

Row | inhibitory activity against β5i (in words) [1] | IC50 [1] | inhibitory activity against β5c (in words) [2] | IC50 [2] | EC50 (Plasmodium falciparum) | selectivity for β5i over β5c [1] | Compound
18 |  | 2350 nM |  | 14600 nM | 364 nM |  | CC(CNC(=O)c1cccc(-c2ccccc2)c1)NC(=O)[C@H](CC(=O)NC(C)(C)C)NC(=O)CCc1ccccc1 (mixture of isomers) [PKS21018]
19 |  | 390 nM |  | 68 nM |  |  | CC(C)(C)NC(=O)CC[C@H](NC(=O)CCc1ccccc1)C(=O)NCCNC(=O)c1cccc(-c2ccccc2)c1 [PKS21030]
20 |  | 158 nM |  | 2240 nM |  |  | CC(C)(C)NC(=O)C[C@H](NC(=O)CCc1ccc(F)cc1)C(=O)NCCNC(=O)c1ccc(F)c2ccccc12 [PKS21259]
21 |  | 16 nM |  | 360 nM |  | ~20 fold | CC(C)(C)NC(=O)C[C@H](NC(=O)CCc1ccccc1)C(=O)NCCNC(=O)c1cc(-c2ccccc2F)ccc1F [PKS21187]
22 |  | 2060 nM |  | 7250 nM |  |  | CC(C)(C)NC(=O)C[C@H](NC(=O)CCc1ccccc1)C(=O)NCCNC(=O)c1cccc(-c2ccc(C#N)cc2)c1 [PKS21028]
23 |  | 7770 nM |  | 57400 nM |  |  | CC(C)(C)NC(=O)C[C@H](NC(=O)CCc1ccc(F)cc1)C(=O)NCCNC(=O)c1ccccn1 [PKS21254]
24 |  | 740 nM |  | 3640 nM |  |  | CC(C)(C)NC(=O)C[C@H](NC(=O)CCc1ccc(F)cc1)C(=O)NCCNC(=O)c1ccccc1F [PKS21255]
25 |  | 12 nM |  | 420 nM |  |  | Cc1ccc(S(=O)(=O)N[C@@H](CC(=O)NC(C)(C)C)C(=O)NCCNC(=O)c2cc(-c3cccc(F)c3)ccc2F)cc1 [PKS21228]
26 |  | 69 nM |  | 1290 nM |  |  | Cc1ccc(S(=O)(=O)N[C@@H](CC(=O)NC(C)(C)C)C(=O)NCCNC(=O)c2cccc(-c3cc[nH]n3)c2)cc1 [PKS21282]
27 |  | 80 nM |  | 165 nM |  |  | O=C(CCc1ccc(F)cc1)N[C@@H](CC(=O)NC1(C(F)(F)F)CC1)C(=O)NCCNC(=O)c1cccc(-c2ccccc2)c1 [PKS21278]
28 |  | 59 nM |  | 1940 nM |  |  | CC(C)(C)NC(=O)C[C@H](NC(=O)CCc1ccccc1)C(=O)NCCNC(=O)c1cc(-c2cccc(F)c2)ccc1F [PKS21195]
29 |  | 110 nM |  | 1160 nM | 100 nM |  | CC(C)(C)NC(=O)C[C@H](NC(=O)CCc1ccccc1)C(=O)NCCNC(=O)c1cccc(-c2ccc(F)cc2)c1 [PKS21026]
30 |  | 44 nM |  | 818 nM |  |  | CC(C)(C)NC(=O)C[C@H](NC(=O)CCc1ccccc1)C(=O)NCCNC(=O)c1cc(-c2ccccc2)ccc1F [PKS21196]
31 |  | 620 nM |  | 13300 nM |  |  | CC(=O)N[C@@H](CC(=O)NC(C)(C)C)C(=O)NCCNC(=O)c1cc(-c2ccccc2F)ccc1F [PKS21294]
32 |  | 2410 nM |  | 22700 nM |  |  | CC(C)(C)NC(=O)C[C@H](NC(=O)CCc1ccc(F)cc1)C(=O)NCCNC(=O)c1cccc2cccnc12 [PKS21258]
33 |  | 276 nM |  | 3460 nM | 30 nM |  | CC(C)(C)NC(=O)C[C@H](NC(=O)CCc1ccccc1)C(=O)NCCCNC(=O)c1cccc(-c2ccccc2)c1 [PKS21019]
34 |  | 125 nM |  | 2760 nM |  |  | CC(C)(C)NC(=O)C[C@H](NC(=O)CCc1ccccc1)C(=O)NCCNC(=O)c1cc(-c2ccccc2)ccn1 [PKS21186]
